# Measurements as given in PubChem BioAssay (NCI).
# Several values for one entry are separate records, joined by “and”; a condition that tells them apart may be missing. Identical values can stand only once.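 Values below derive from 48-hour exposures of cells grown in 96-well plates, with endpoints linearly interpolated between the two concentrations bracketing the appropriate inhibition level. GI50 is the concentration that inhibits growth by half. The concentration for full growth arrest is given as TGI.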
# Columns and labels:
# Assay in all cases: NCI-60 cell line screen, 48 h
# HS 578T breast = system: HS 578T breast
# SK-MEL-28 melanoma = system: SK-MEL-28 melanoma
# OVCAR-5 ovarian = system: OVCAR-5 ovarian
# RXF 393 renal = system: RXF 393 renal
# MALME-3M melanoma = system: MALME-3M melanoma
# SF-268 CNS = system: SF-268 CNS
# MDA-MB-435 = system: MDA-MB-435
# LOX IMVI melanoma = system: LOX IMVI melanoma
SMILES,GI50 (HS 578T breast),TGI (HS 578T breast),GI50 (SK-MEL-28 melanoma),TGI (SK-MEL-28 melanoma),GI50 (OVCAR-5 ovarian),TGI (OVCAR-5 ovarian),GI50 (RXF 393 renal),TGI (RXF 393 renal),GI50 (MALME-3M melanoma),TGI (MALME-3M melanoma),GI50 (SF-268 CNS),TGI (SF-268 CNS),GI50 (MDA-MB-435),TGI (MDA-MB-435),GI50 (LOX IMVI melanoma),TGI (LOX IMVI melanoma)
CN1CCN(Cc2ccc(NC(=O)c3cncc(C#Cc4c(N)ncc5ccc(C#N)cc45)c3)cc2C(F)(F)F)CC1,0.741 µM,9.45 µM,0.35 µM,1.1 µM,0.813 µM,1.61 µM,1.08 µM,2.88 µM,0.0477 µM,0.331 µM,0.91 µM,1.89 µM,0.333 µM,1.07 µM,0.29 µM,1.07 µM
OCc1ccc(-c2csc(-c3ccc(CO)o3)c2)o1,70.6 µM,> 100 µM,34.2 µM,> 100 µM,0.199 µM,1.52 µM,> 79.7 µM,> 100 µM,35.5 µM,> 100 µM,71.9 µM,> 100 µM,24.1 µM,> 100 µM,66.5 µM,> 100 µM
COc1cc2c(NCCCCCO)ncnc2c(OC)c1OC,–,> 100 µM,–,> 100 µM,–,> 100 µM,–,> 100 µM,–,> 100 µM,–,> 100 µM,–,> 100 µM,–,> 100 µM
O=C(Cn1c(C(=O)c2ccc(Cl)cc2)nc(-c2ccc(Cl)cc2)c1-c1ccc(Cl)cc1)c1ccccc1,> 100 µM,> 100 µM,> 100 µM,> 100 µM,> 100 µM,> 100 µM,> 100 µM,> 100 µM,> 100 µM,> 100 µM,> 100 µM,> 100 µM,> 100 µM,> 100 µM,> 100 µM,> 100 µM
COC(=O)c1ccc2nc(-c3cc4ccccc4n3C)n(CCCCOc3cc4c(cc3OC)C(=O)N3CCC[C@H]3C=N4)c2c1,0.276 µM,1.42 µM,0.652 µM,2.3 µM,0.811 µM,2.06 µM,0.687 µM,2.27 µM,1.07 µM,2.83 µM,0.29 µM,0.925 µM,0.677 µM,1.77 µM,0.592 µM,1.74 µM
CCn1c(-c2nonc2N)nc2c(C#CC(C)(C)O)ncc(OC3CCNCC3)c21,2.11 µM,> 25 µM,14.9 µM,> 25 µM,> 25 µM,> 25 µM,2.84 µM,13.3 µM,> 25 µM,> 25 µM,16.6 µM,> 25 µM,13.6 µM,> 25 µM,8.5 µM,> 25 µM
COc1cc(-c2cc3ncccc3c3nc(OCCN(C)C)c4cccnc4c23)cc(OC)c1OC,1.5 µM,14.9 µM,0.639 µM,2.42 µM,1.34 µM,3.68 µM,0.473 µM,2.07 µM,0.431 µM,2.5 µM,0.637 µM,11 µM,0.671 µM,3.75 µM,0.275 µM,1.26 µM
Fc1cc(F)c(F)c(S)c1F,–,> 100 µM,–,> 100 µM,–,> 100 µM,–,54.8 µM,–,> 100 µM,–,> 100 µM,–,> 100 µM,–,> 100 µM
Cn1cc(C2=C(c3c4n(c5ccccc35)CCNC4)C(=O)NC2=O)c2ccccc21,4.14 µM,> 20.5 µM,> 15.3 µM,> 25 µM,> 25 µM,> 25 µM,3.73 µM,14.1 µM,> 11.5 µM,> 24.1 µM,10.5 µM,> 25 µM,0.991 µM,> 17.1 µM,11.3 µM,> 25 µM
CNC(=O)c1nn(C)c2c1C(C)(C)Cc1cnc(Nc3cccc(N4CCN(C)CC4)c3)nc1-2,0.204 µM,2.46 µM,1.32 µM,13.1 µM,0.372 µM,> 100 µM,0.147 µM,1.38 µM,0.223 µM,5.59 µM,0.931 µM,9.36 µM,0.335 µM,11.8 µM,0.178 µM,2.53 µM
N#CC(C#N)=NNc1ccc2cn[nH]c2c1,–,> 100 µM,–,> 100 µM,–,> 100 µM,–,55.4 µM,–,69.5 µM,–,> 100 µM,–,> 100 µM,–,> 100 µM
CC1=C/C=C/C(=O)O[C@@H]([C@H](C)[C@H](O)[C@@H](C)NC(=O)C(C)C)[C@H](C)/C=C/C(C)=C/[C@H]2C=CCC[C@@]2(C)\C=C\1,6.73 µM and 1.9 µM,> 42.3 µM,0.469 µM and 0.376 µM,8.48 µM,8.43 µM and 5.43 µM,14.3 µM,–,8.69 µM,2.01 µM and 1.71 µM,8.4 µM,–,17.7 µM,0.0335 µM and 0.0165 µM,6.43 µM,0.0479 µM and 0.0688 µM,0.307 µM and 0.178 µM
CNS(=O)(=O)OCC1OC(n2cnc3cncnc32)C(O)C1O (configuration not stated),> 100 µM,> 100 µM,> 100 µM,> 100 µM,> 100 µM,> 100 µM,> 100 µM,> 100 µM,> 100 µM,> 100 µM,> 100 µM,> 100 µM,> 100 µM,> 100 µM,> 100 µM,> 100 µM
COc1cc(OC)cc(Oc2cnc3cc(N)cc(N)c3n2)c1,24.7 µM,87.8 µM,14.2 µM,28.4 µM,15.5 µM,30.4 µM,15.4 µM,29 µM,10.7 µM,22.5 µM,15.5 µM,31.9 µM,2.87 µM,6.76 µM,11.5 µM,24 µM
C[C@@H](N)COc1ccc(-c2cnc3ccc(N[C@H](C)c4cccc(F)c4)nn23)cc1,1.61 µM,3.82 µM,1.64 µM,3.07 µM,1.38 µM,4.54 µM,–,–,1.33 µM,2.62 µM,1.85 µM,6.38 µM,1.47 µM,3.07 µM,1.42 µM,2.72 µM
